According to patent US20200016159A1, “N3-CYCLICALLY SUBSTITUTED THIENOURACILS AND USE THEREOF” (Bayer Aktiengesellschaft, priority 2016, published 2020):

Target: T1, human adenosine A2b receptor (Homo sapiens, UniProt P29275)
T1 sequence (P29275 1-332): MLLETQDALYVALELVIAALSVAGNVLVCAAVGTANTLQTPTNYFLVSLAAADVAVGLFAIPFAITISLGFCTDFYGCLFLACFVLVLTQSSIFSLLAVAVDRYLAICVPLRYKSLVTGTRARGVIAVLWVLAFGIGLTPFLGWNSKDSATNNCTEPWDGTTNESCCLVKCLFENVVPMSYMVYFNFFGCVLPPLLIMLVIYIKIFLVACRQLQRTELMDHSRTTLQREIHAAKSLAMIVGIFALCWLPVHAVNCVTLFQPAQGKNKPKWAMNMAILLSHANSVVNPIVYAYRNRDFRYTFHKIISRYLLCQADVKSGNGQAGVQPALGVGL
Assay: Cellular in vitro reporter gene test for A2b receptor activity (antagonism of NECA)
Assay type: cell-based
Set-up: expressed in transfected cells; host or cells: CHO-K1 (Chinese hamster ovary) with CRE-luciferase reporter
Conditions: recombinant CHO-K1 cells, CRE-luciferase reporter, co-incubation with EC50 concentration of NECA, 3 hours
Procedure, shortened: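 Antagonism measured as block of NECA-induced, cAMP/CRE-dependent luciferase expression in recombinant A2b CHO-K1 cells. NECA used at the EC50 set in a pre-experiment on each test day; luminescence detected after 3 h. Reported as IC50, partly averaged and rounded to two significant figures.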

| IC50 | Structure (SMILES) |
| --- | --- |
| 0.11 µM | COCCn1c(=O)n(C2(C)CCC2)c(=O)c2c(C)c(CN3CCNC3=NC(=O)OC)sc21 [Example 141, Methyl [1-{[1-(2-methoxyethyl)-5-methyl-3-(1-methylcyclobutyl)-2,4-dioxo-1,2,3,4-tetrahydrothieno[2,3-d]pyrimidin-6-yl]methyl}imidazolidine-2-ylidene]carbamate] |
| 0.46 µM | COCCn1c(=O)n(C2(C)CCC2)c(=O)c2c(C)c(CN3CCNC(=O)C3=O)sc21 [Example 142, 6-[(2,3-Dioxopiperazin-1-yl)methyl]-1-(2-methoxyethyl)-5-methyl-3-(1-methylcyclobutyl)thieno[2,3-d]pyrimidine-2,4(1H,3H)-dione] |
| 0.88 µM | COCCn1c(=O)n(C2(C)CCC2)c(=O)c2c(C)c(Cn3nc[nH]c3=O)sc21 [Example 143, 1-(2-Methoxyethyl)-5-methyl-3-(1-methylcyclobutyl)-6-[(5-oxo-4,5-dihydro-H-1,2,4-triazol-1-yl)methyl]thieno[2,3-d]pyrimidine-2,4(1H,3H)-dione] |
| 0.01 µM | CO[C@H]1C[C@H](n2c(=O)c3c(C)c(CN4CCNC4=O)sc3n(CCC(F)(F)F)c2=O)C1 [Example 144, 3-(trans-3-Methoxycyclobutyl)-5-methyl-6-[(2-oxoimidazolidin-1-yl)methyl]-1-(3,3,3-trifluoropropyl)thieno[2,3-d]pyrimidine-2,4(1H,3H)-dione] |
| 0.023 µM | CO[C@H]1C[C@H](n2c(=O)c3c(C)c(CN4CCNC4=NC#N)sc3n(CCC(F)(F)F)c2=O)C1 [Example 145, [1-{[3-(trans-3-Methoxycyclobutyl)-5-methyl-2,4-dioxo-1-(3,3,3-trifluoropropyl)-1,2,3,4-tetrahydrothieno[2,3-d]pyrimidin-6-yl]methyl}imidazolidin-2-ylidene]cyanamide] |
| 0.0062 µM | COC(=O)N=C1NCCN1Cc1sc2c(c1C)c(=O)n([C@H]1C[C@H](OC)C1)c(=O)n2CCC(F)(F)F [Example 146, Methyl [1-{[3-(trans-3-methoxycyclobutyl)-5-methyl-2,4-dioxo-1-(3,3,3-trifluoropropyl)-1,2,3,4-tetrahydrothieno[2,3-d]pyrimidin-6-yl]methyl}imidazolidin-2-ylidene]carbamate] |
| 0.048 µM | CO[C@H]1C[C@H](n2c(=O)c3c(C)c(CN4CCNC(=O)C4=O)sc3n(CCC(F)(F)F)c2=O)C1 [Example 147, 6-[(2,3-Dioxopiperazin-1-yl)methyl]-3-(trans-3-methoxycyclobutyl)-5-methyl-1-(3,3,3-trifluoropropyl)thieno[2,3-d]pyrimidine-2,4(1H,3H)-dione] |
| 0.066 µM | CO[C@H]1C[C@H](n2c(=O)c3c(C)c(Cn4nc[nH]c4=O)sc3n(CCC(F)(F)F)c2=O)C1 [Example 148, 3-(trans-3-Methoxycyclobutyl)-5-methyl-6-[(5-oxo-4,5-dihydro-1H-1,2,4-triazol-1-yl)methyl]-1-(3,3,3-trifluoropropyl)thieno[2,3-d]pyrimidine-2,4(1H,3H)-dione] |
| 0.082 µM | COCCn1c(=O)n([C@H]2C[C@H](OC)C2)c(=O)c2c(C)c(CN3CCNC3=O)sc21 [Example 149, 3-(trans-3-Methoxycyclobutyl)-1-(2-methoxyethyl)-5-methyl-6-[(2-oxoimidazolidin-1-yl)methyl]thieno[2,3-d]pyrimidine-2,4(1H,3H)-dione] |
| 0.12 µM | COCCn1c(=O)n([C@H]2C[C@H](OC)C2)c(=O)c2c(C)c(CN3CCNC3=NC#N)sc21 [Example 150, [1-{[3-(trans-3-Methoxycyclobutyl)-1-(2-methoxyethyl)-5-methyl-2,4-dioxo-1,2,3,4-tetrahydrothieno[2,3-d]pyrimidin-6-yl]methyl}imidazolidin-2-ylidene]cyanamide] |
| 0.045 µM | COCCn1c(=O)n([C@H]2C[C@H](OC)C2)c(=O)c2c(C)c(CN3CCNC3=NC(=O)OC)sc21 [Example 151, Methyl [1-{[3-(trans-3-methoxycyclobutyl)-1-(2-methoxyethyl)-5-methyl-2,4-dioxo-1,2,3,4-tetrahydrothieno[2,3-d]pyrimidin-6-yl]methyl}imidazolidin-2-ylidene]carbamate] |
| 0.34 µM | COCCn1c(=O)n([C@H]2C[C@H](OC)C2)c(=O)c2c(C)c(CN3CCNC(=O)C3=O)sc21 [Example 152, 6-[(2,3-Dioxopiperazin-1-yl)methyl]-3-(trans-3-methoxycyclobutyl)-1-(2-methoxyethyl)-5-methylthieno[2,3-d]pyrimidine-2,4(1H,3H)-dione] |
| 0.22 µM | COCCn1c(=O)n([C@H]2C[C@H](OC)C2)c(=O)c2c(C)c(Cn3nc[nH]c3=O)sc21 [Example 153, 3-(trans-3-Methoxycyclobutyl)-1-(2-methoxyethyl)-5-methyl-6-[(5-oxo-4,5-dihydro-1H-1,2,4-triazol-1-yl)methyl]thieno[2,3-d]pyrimidine-2,4(1H,3H)-dione] |
| 0.023 µM | CO[C@H]1C[C@@H](n2c(=O)c3c(C)c(CN4CCNC4=O)sc3n(CCC(F)(F)F)c2=O)C1 [Example 154, 3-(cis-3-Methoxycyclobutyl)-5-methyl-6-[(2-oxoimidazolidin-1-yl)methyl]-1-(3,3,3-trifluoropropyl)thieno[2,3-d]pyrimidine-2,4(1H,3H)-dione] |
| 0.056 µM | CO[C@H]1C[C@@H](n2c(=O)c3c(C)c(CN4CCNC4=NC#N)sc3n(CCC(F)(F)F)c2=O)C1 [Example 155, [1-{[3-(cis-3-Methoxycyclobutyl)-5-methyl-2,4-dioxo-1-(3,3,3-trifluoropropyl)-1,2,3,4-tetrahydrothieno[2,3-d]pyrimidin-6-yl]methyl}imidazolidin-2-ylidene]cyanamide] |
| 0.018 µM | COC(=O)N=C1NCCN1Cc1sc2c(c1C)c(=O)n([C@H]1C[C@@H](OC)C1)c(=O)n2CCC(F)(F)F [Example 156, Methyl [1-{[3-(cis-3-methoxycyclobutyl)-5-methyl-2,4-dioxo-1-(3,3,3-trifluoropropyl)-1,2,3,4-tetrahydrothieno[2,3-d]pyrimidin-6-yl]methyl}imidazolidin-2-ylidene]carbamate] |
| 0.063 µM | CO[C@H]1C[C@@H](n2c(=O)c3c(C)c(CN4CCNC(=O)C4=O)sc3n(CCC(F)(F)F)c2=O)C1 [Example 157, 6-[(2,3-Dioxopiperazin-1-yl)methyl]-3-(cis-3-methoxycyclobutyl)-5-methyl-1-(3,3,3-trifluoropropyl)thieno[2,3-d]pyrimidine-2,4(1H,3H)-dione] |
| 0.18 µM | CO[C@H]1C[C@@H](n2c(=O)c3c(C)c(Cn4nc[nH]c4=O)sc3n(CCC(F)(F)F)c2=O)C1 [Example 158, 3-(cis-3-Methoxycyclobutyl)-5-methyl-6-[(5-oxo-4,5-dihydro-1H-1,2,4-triazol-1-yl)methyl]-1-(3,3,3-trifluoropropyl)thieno[2,3-d]pyrimidine-2,4(1H,3H)-dione] |
| 0.2 µM | COCCn1c(=O)n([C@H]2C[C@@H](OC)C2)c(=O)c2c(C)c(CN3CCNC3=O)sc21 [Example 159, 3-(cis-3-Methoxycyclobutyl)-1-(2-methoxyethyl)-5-methyl-6-[(2-oxoimidazolidin-1-yl)methyl]thieno[2,3-d]pyrimidine-2,4(1H,3H)-dione] |
| 0.2 µM | COCCn1c(=O)n([C@H]2C[C@@H](OC)C2)c(=O)c2c(C)c(CN3CCNC3=NC#N)sc21 [Example 160, [1-{[3-(cis-3-Methoxycyclobutyl)-1-(2-methoxyethyl)-5-methyl-2,4-dioxo-1,2,3,4-tetrahydrothieno[2,3-d]pyrimidin-6-yl]methyl}imidazolidin-2-ylidene]cyanamide] |
| 0.13 µM | COCCn1c(=O)n([C@H]2C[C@@H](OC)C2)c(=O)c2c(C)c(CN3CCNC3=NC(=O)OC)sc21 [Example 161, Methyl [1-{[3-(cis-3-methoxycyclobutyl)-1-(2-methoxyethyl)-5-methyl-2,4-dioxo-1,2,3,4-tetrahydrothieno[2,3-d]pyrimidin-6-yl]methyl}imidazolidin-2-ylidene]carbamate] |
| 0.73 µM | COCCn1c(=O)n([C@H]2C[C@@H](OC)C2)c(=O)c2c(C)c(CN3CCNC(=O)C3=O)sc21 [Example 162, 6-[(2,3-Dioxopiperazin-1-yl)methyl]-3-(cis-3-methoxycyclobutyl)-1-(2-methoxyethyl)-5-methylthieno[2,3-d]pyrimidine-2,4(1H,3H)-dione] |
| 1.2 µM | COCCn1c(=O)n([C@H]2C[C@@H](OC)C2)c(=O)c2c(C)c(Cn3nc[nH]c3=O)sc21 [Example 163, 3-(cis-3-Methoxycyclobutyl)-1-(2-methoxyethyl)-5-methyl-6-[(5-oxo-4,5-dihydro-1H-1,2,4-triazol-1-yl)methyl]thieno[2,3-d]pyrimidine-2,4(1H,3H)-dione] |
| 0.0046 µM | Cc1c(CN2CCNC2=O)sc2c1c(=O)n(C1CC(C)(C)C1)c(=O)n2CCC(F)(F)F [Example 164, 3-(3,3-Dimethylcyclobutyl)-5-methyl-6-[(2-oxoimidazolidin-1-yl)methyl]-1-(3,3,3-trifluoropropyl)thieno[2,3-d]pyrimidine-2,4(1H,3H)-dione] |
| 0.014 µM | Cc1c(CN2CCNC2=NC#N)sc2c1c(=O)n(C1CC(C)(C)C1)c(=O)n2CCC(F)(F)F [Example 165, [1-{[3-(3,3-Dimethylcyclobutyl)-5-methyl-2,4-dioxo-1-(3,3,3-trifluoropropyl)-1,2,3,4-tetrahydrothieno[2,3-d]pyrimidin-6-yl]methyl}imidazolidin-2-ylidene]cyanamide] |
